Results: patent US20240390338A1, “METHODS FOR TREATING NEUROGENERATIVE DISEASES” (PTC THERAPEUTICS, INC., priority 2021, published 2024)

test system: MAPT 3R mRNA; test: RT-qPCR Assay to Quantify MAPT 3R mRNA in Cells; assay type: cell-based; conditions: cells incubated with compound 24 h; 7-point concentration curve; MAPT minigene 3R RT-qPCR with GAPDH assay; EC2X interpolated from dose response curve
Protocol: RT-qPCR Assay to Quantify MAPT 3R mRNA in Cells
Test compounds were serially diluted 3.16-fold in 100% DMSO to generate a 7-point concentration curve. Aliquots of 0.5 μL of diluted compounds were transferred to a 96-well flat bottom plate by a liquid handler. An aliquot of 0.5 μL DMSO was also transferred to separate wells and used as controls. Duplicate samples were set up for each compound concentration and for the DMSO control.
Cells were thawed and incubated in cell culture media (DMEM, 10% FBS, and 1% antibiotic cocktail) for 72 h. Cells were trypsinized, counted, and re-suspended to a concentration of 200,000 cells/mL in cell culture media. A 100 μL aliquot of the cell suspensions were plated at 20,000 cells per well in the compound containing 96 well microtiter plate and incubated for in a cell culture incubator (37° C., 5% CO2, 100% relative humidity).
After 24 h, media was aspirated from the cells and 20 μL of the RCL2 lysis buffer (10 mM Tris-HCL pH 7.4, 150 mM NaCl, 0.33% IGEPAL® CA-630) was added to each well and incubated at RT for 1 min. Chilled nuclease free water (140 μL per well) was added and the plates were immediately transferred on ice. After 1 min on ice, plates were frozen at −80° C. overnight.
Preparation of RT-qPCR Reaction Mixture:
An aliquot of 4 μL/well of the cell lysates was transferred using the liquid handler to the Armadillo 384-Well PCR plate containing 6 μL/well of the RT-qPCR reaction mixture that was prepared as detailed above. The plates were then sealed with MicroAmp™ Optical Adhesive Film followed by spinning down for 1 min and placed in the CFX384 thermocycler (BioRad).
The RT-qPCR was carried out at the following temperatures for the indicated time: • Step 1: 48° C. (30 min) • Step 2: 95° C. (10 min) • Step 3: 95° C. (15 sec) • Step 4: 60° C. (1 min); then, repeated Steps 3 and 4 for a total of 40 cycles.
The percent exon 4 skipping was calculated for each dose of compound treatment using Equations 1 and 2.
Data were fit to a dose response curve and the EC2X was interpolated using XLfit® statistical and curve fitting package.
An EC2X value between >1000 nM and ≤1500 nM is indicated by two stars (**). An EC2X value between >500 nM and ≤1000 nM is indicated by three stars (***). An EC2X value between >50 nM and ≤500 nM is indicated by four stars (****). An EC2X value ≤50 nM is indicated by five stars (*****).

Question: Which EC (2-fold increase) does the source give for `C[C@H](N)Cc1cc2nc(Cl)cc(NCc3ccco3)c2s1` [Cpd 16, 2-[(2S)-2-aminopropyl]-5-chloro-N-[(furan-2-yl)methyl]thieno[3,2-b]pyridin-7-amine] here?
Answer: The EC (2-fold increase) was 0.05 to 0.5 µM.

Question: `N[C@@H](CO)Cc1cc2nc(Cl)cc(NCc3ccco3)c2s1` [Cpd 17, (2R)-2-amino-3-(5-chloro-7-{[(furan-2-yl)methyl]amino}thieno[3,2-b]pyridin-2-yl)propan-1-ol] was tested. Which EC (2-fold increase) did it give?
Answer: Its EC (2-fold increase) is 1 to 1.5 µM.

Question: Which EC (2-fold increase) does the source give for `Cc1c(C[C@H](C)N)sc2c(NCc3ccco3)cc(Cl)nc12` [Cpd 18, 2-[(2S)-2-aminopropyl]-5-chloro-N-[(furan-2-yl)methyl]-3-methylthieno[3,2-b]pyridin-7-amine] here?
Answer: Its EC (2-fold increase) is at most 0.05 µM.

Question: With `Cc1c(C[C@H](C)N)sc2c(NCc3ccccc3F)cc(Cl)nc12` [Cpd 29, 2-[(2S)-2-aminopropyl]-5-chloro-N-[(2-fluorophenyl)methyl]-3-methylthieno[3,2-b]pyridin-7-amine] as the compound, how does the EC (2-fold increase) read?
Answer: Its EC (2-fold increase) is at most 0.05 µM.

Question: `Cc1c(C[C@H](C)N)sc2c(NCc3ccco3)ccnc12` [Cpd 34, 2-[(2S)-2-aminopropyl]-N-[(furan-2-yl)methyl]-3-methylthieno[3,2-b]pyridin-7-amine] was tested. Which EC (2-fold increase) did it give?
Answer: Its EC (2-fold increase) is 0.05 to 0.5 µM.

Question: Which EC (2-fold increase) does the source give for `C[C@H](N)Cc1sc2c(NCc3ccco3)cc(Cl)nc2c1Cl` [Cpd 36, 2-[(2S)-2-aminopropyl]-3,5-dichloro-N-[(furan-2-yl)methyl]thieno[3,2-b]pyridin-7-amine] here?
Answer: Its EC (2-fold increase) is at most 0.05 µM.

Question: With `N[C@@H](CO)Cc1sc2c(NCc3ccco3)cc(Cl)nc2c1Cl` [Cpd 39, (2R)-2-amino-3-(3,5-dichloro-7-{[(furan-2-yl)methyl]amino}thieno[3,2-b]pyridin-2-yl)propan-1-ol] as the compound, how does the EC (2-fold increase) read?
Answer: The EC (2-fold increase) was 0.05 to 0.5 µM.

Question: `COC[C@H](N)Cc1sc2c(NCc3ccco3)cc(Cl)nc2c1Cl` [Cpd 40, 2-[(2R)-2-amino-3-methoxypropyl]-3,5-dichloro-N-[(furan-2-yl)methyl]thieno[3,2-b]pyridin-7-amine] was tested. Which EC (2-fold increase) did it give?
Answer: The EC (2-fold increase) was at most 0.05 µM.

Question: With `N[C@@H](CO)Cc1sc2c(NCc3ccco3)cc(Cl)nc2c1Br` [Cpd 41, (2R)-2-amino-3-(3-bromo-5-chloro-7-{[(furan-2-yl)methyl]amino}thieno[3,2-b]pyridin-2-yl)propan-1-ol] as the compound, how does the EC (2-fold increase) read?
Answer: Its EC (2-fold increase) is 0.5 to 1 µM.

Question: For `CN[C@@H](C)Cc1sc2c(NCc3ccco3)cc(Cl)nc2c1C` [Cpd 42, 5-chloro-N-[(furan-2-yl)methyl]-3-methyl-2-[(2S)-2-(methylamino)propyl]thieno[3,2-b]pyridin-7-amine], which EC (2-fold increase) is on record?
Answer: The EC (2-fold increase) was 0.5 to 1 µM.

Question: With `COC[C@H](N)Cc1sc2c(NCc3ccco3)cc(Cl)nc2c1Br` [Cpd 44, 2-[(2R)-2-amino-3-methoxypropyl]-3-bromo-5-chloro-N-[(furan-2-yl)methyl]thieno[3,2-b]pyridin-7-amine] as the compound, how does the EC (2-fold increase) read?
Answer: Its EC (2-fold increase) is at most 0.05 µM.

Question: With `COC[C@H](N)Cc1sc2c(NCc3ccco3)cc(Cl)nc2c1C` [Cpd 45, 2-[(2R)-2-amino-3-methoxypropyl]-5-chloro-N-[(furan-2-yl)methyl]-3-methylthieno[3,2-b]pyridin-7-amine] as the compound, how does the EC (2-fold increase) read?
Answer: The EC (2-fold increase) was at most 0.05 µM.

Question: With `C[C@H](N)Cc1sc2c(NCc3ccco3)cc(Cl)nc2c1C1CC1` [Cpd 51, 2-[(2S)-2-aminopropyl]-5-chloro-3-cyclopropyl-N-[(furan-2-yl)methyl]thieno[3,2-b]pyridin-7-amine] as the compound, how does the EC (2-fold increase) read?
Answer: The EC (2-fold increase) was at most 0.05 µM.

Question: `C[C@H](N)Cc1sc2c(NCc3cccs3)cc(Cl)nc2c1Cl` [Cpd 52, 2-[(2S)-2-aminopropyl]-3,5-dichloro-N-[(thiophen-2-yl)methyl]thieno[3,2-b]pyridin-7-amine] was tested. Which EC (2-fold increase) did it give?
Answer: Its EC (2-fold increase) is at most 0.05 µM.

Question: With `C[C@H](N)Cc1sc2c(NCc3cccs3)cc(Cl)nc2c1Br` [Cpd 53, 2-[(2S)-2-aminopropyl]-3-bromo-5-chloro-N-[(thiophen-2-yl)methyl]thieno[3,2-b]pyridin-7-amine] as the compound, how does the EC (2-fold increase) read?
Answer: Its EC (2-fold increase) is at most 0.05 µM.

Question: `Cc1c(C[C@H](C)N)sc2c(NCc3cccs3)cc(C#N)nc12` [Cpd 54, 2-[(2S)-2-aminopropyl]-3-methyl-7-{[(thiophen-2-yl)methyl]amino}thieno[3,2-b]pyridine-5-carbonitrile] was tested. Which EC (2-fold increase) did it give?
Answer: Its EC (2-fold increase) is 0.05 to 0.5 µM.

Question: For `Cc1c(C[C@H](C)N)sc2c(NCc3nccs3)cc(Cl)nc12` [Cpd 57, 2-[(2S)-2-aminopropyl]-5-chloro-3-methyl-N-[(1,3-thiazol-2-yl)methyl]thieno[3,2-b]pyridin-7-amine], which EC (2-fold increase) is on record?
Answer: Its EC (2-fold increase) is at most 0.05 µM.

Question: `Cc1c(C[C@@H](N)CO)sc2c(NCc3ccco3)cc(Cl)nc12` [Cpd 58, (2R)-2-amino-3-(5-chloro-7-{[(furan-2-yl)methyl]amino}-3-methylthieno[3,2-b]pyridin-2-yl)propan-1-ol] was tested. Which EC (2-fold increase) did it give?
Answer: The EC (2-fold increase) was at most 0.05 µM.

Question: With `Cc1c(C[C@@H](N)CC(C)C)sc2c(NCc3cccs3)cc(Cl)nc12` [Cpd 61, 2-[(2S)-2-amino-4-methylpentyl]-5-chloro-3-methyl-N-[(thiophen-2-yl)methyl]thieno[3,2-b]pyridin-7-amine] as the compound, how does the EC (2-fold increase) read?
Answer: The EC (2-fold increase) was at most 0.05 µM.

Question: For `N[C@H](CF)Cc1sc2c(NCc3cccs3)cc(Cl)nc2c1Br` [Cpd 63, 2-[(2S)-2-amino-3-fluoropropyl]-3-bromo-5-chloro-N-[(thiophen-2-yl)methyl]thieno[3,2-b]pyridin-7-amine], which EC (2-fold increase) is on record?
Answer: The EC (2-fold increase) was 1 to 1.5 µM.

Question: `CC[C@H](N)Cc1sc2c(NCc3cccs3)cc(Cl)nc2c1Br` [Cpd 73, 2-[(2S)-2-aminobutyl]-3-bromo-5-chloro-N-[(thiophen-2-yl)methyl]thieno[3,2-b]pyridin-7-amine] was tested. Which EC (2-fold increase) did it give?
Answer: Its EC (2-fold increase) is at most 0.05 µM.

Question: With `N[C@@H](CCF)Cc1sc2c(NCc3cccs3)cc(Cl)nc2c1Br` [Cpd 74, 2-[(2S)-2-amino-4-fluorobutyl]-3-bromo-5-chloro-N-[(thiophen-2-yl)methyl]thieno[3,2-b]pyridin-7-amine] as the compound, how does the EC (2-fold increase) read?
Answer: Its EC (2-fold increase) is at most 0.05 µM.

Question: Which EC (2-fold increase) does the source give for `N[C@@H](CF)Cc1sc2c(NCc3cccs3)cc(Cl)nc2c1Br` [Cpd 76, 2-[(2R)-2-amino-3-fluoropropyl]-3-bromo-5-chloro-N-[(thiophen-2-yl)methyl]thieno[3,2-b]pyridin-7-amine] here?
Answer: Its EC (2-fold increase) is at most 0.05 µM.

Question: For `CC[C@H](N)Cc1sc2c(NCc3cccs3)cc(Cl)nc2c1Cl` [Cpd 83, 2-[(2S)-2-aminobutyl]-3,5-dichloro-N-[(thiophen-2-yl)methyl]thieno[3,2-b]pyridin-7-amine], which EC (2-fold increase) is on record?
Answer: The EC (2-fold increase) was at most 0.05 µM.

Question: For `Cc1c(C[C@@H](N)CF)sc2c(NCc3cccs3)cc(Cl)nc12` [Cpd 91, 2-[(2R)-2-amino-3-fluoropropyl]-5-chloro-3-methyl-N-[(thiophen-2-yl)methyl]thieno[3,2-b]pyridin-7-amine], which EC (2-fold increase) is on record?
Answer: Its EC (2-fold increase) is at most 0.05 µM.

Question: How did the EC (2-fold increase) turn out when `Cc1c(C[C@@H](N)CCF)sc2c(NCc3cccs3)cc(Cl)nc12` [Cpd 92, 2-[(2S)-2-amino-4-fluorobutyl]-5-chloro-3-methyl-N-[(thiophen-2-yl)methyl]thieno[3,2-b]pyridin-7-amine] was run?
Answer: Its EC (2-fold increase) is 0.05 to 0.5 µM.

Question: With `N[C@@H](CCF)Cc1sc2c(NCc3ccco3)cc(Cl)nc2c1Cl` [Cpd 93, 2-[(2S)-2-amino-4-fluorobutyl]-3,5-dichloro-N-[(furan-2-yl)methyl]thieno[3,2-b]pyridin-7-amine] as the compound, how does the EC (2-fold increase) read?
Answer: The EC (2-fold increase) was 0.05 to 0.5 µM.

Question: With `N[C@@H](CF)Cc1sc2c(NCc3ccco3)cc(Cl)nc2c1Cl` [Cpd 94, 2-[(2R)-2-amino-3-fluoropropyl]-3,5-dichloro-N-[(furan-2-yl)methyl]thieno[3,2-b]pyridin-7-amine] as the compound, how does the EC (2-fold increase) read?
Answer: The EC (2-fold increase) was at most 0.05 µM.

Question: Which EC (2-fold increase) does the source give for `Cc1c(C[C@@H](N)CCF)sc2c(NCc3ccco3)cc(Cl)nc12` [Cpd 95, 2-[(2S)-2-amino-4-fluorobutyl]-5-chloro-N-[(furan-2-yl)methyl]-3-methylthieno[3,2-b]pyridin-7-amine] here?
Answer: Its EC (2-fold increase) is at most 0.05 µM.
